# “Also recorded” adds a separate entry of the source.
# Legend:
# [1] = test system: 3×2 RNA internal loop library (3×2 ILL); assay: AbsorbArray 2DCS selection with Inforna fitness analysis; format: binding, human
# Method: Construction of AbsorbArray Small Molecule Microarrays. Microarrays were constructed as previously reported^4. Briefly, a 1% agarose solution was poured onto a glass slide and dried on the benchtop. A 200 nL aliquot of 68 hit compounds (10 mM in DMSO) was pinned onto the array from a 384-well plate using Biomek NXP Laboratory Automation Workstation. Slides were then dried overnight to obtain a thin, invisible agarose layer. Slides were washed three times with 1×PBST^5 and then three times with nanopure water. Slides were dried completely in the air before RNA selection, completed by Two-Dimensional Combinatorial Screening (2DCS).
# RNA Selection and Screening by 2DCS. The 3×2 RNA ILL was 5′-end ^32P-labeled as previously described^7 and 2DCS selections were completed as previously described 4. All oligonucleotides were folded as described in the “Solution-based Dye Displacement Assay” section. Small molecule microarrays were pre-equilibrated by 3 mL 1× AB2 for 5 min. After removing the pre-equilibration buffer, 5′-end labeled folded 3×2 RNA ILL (~50,000 cpm) was added in 3 mL 1× AB2 containing 1 mM MgCl2 in the presence of competitor oligonucleotides (100 μM each). The oligonucleotide solution was evenly distributed across the microarray surface with a custom-cut piece of Parafilnm. After incubating for 30 min at room temperature, the Parafilm was removed, and the slide was washed gently by submersion in 1× AB2 for 30 s. This washing step was repeated three additional times, and the array was dried on the benchtop for 1 h. […] To harvest and collect the bound RNAs from the ILL, 1 μL of nanopure water was added to each spot. After 30 s, the water drop was absorbed into agarose gel, hydrating it such that it could be excised with a toothpick. The RNAs were eluted from the agarose by simple incubation with water, and then treated with RNase-free DNase I. A unique barcode for each small molecule was installed by reverse transcription (RT). Barcoded RNAs were amplified by PCR, purified, and identified by next-generation sequencing (NGS) using an Ion Proton deep sequencer using PI chips (60-80 million reads) as previously described^2.
# [2] = test system: RTK / phosphorylation of ERK (pERK); assay: Western blot of ERK phosphorylation (functional RTK inhibition) in MDA-MB-231 cells; format: cell-based, human; settings: for IC50: Homo sapiens, MDA-MB-231; for dose inhibiting ERK phosphorylation to the similar extent: Western blot quantification
# Method: Western Blotting. MDA-MB-231 cells were plated in 6-well plates. […] The cells were harvested by trypsinization, and total protein was extracted with MPER (Mammalian Protein Extraction Reagent, Thermo Scientific) as previously described^6. Protein concentrations were determined by using a Pierce Micro BCA Protein Assay kit (Fisher Scientific). […] ImageJ software was used for quantification of the protein bands. […] In each case, the secondary antibody was diluted two times more than the primary antibody.
# [3] = test system: wild type (WT) mice (Col4a3+/+); assay: Wild type mice, control for Alport studies; format: in vivo, mouse
# Method: Alport Mice Studies. Alport mice (Col4a3^−/−) and wild type (WT) mice (Col4a3^+/+) were obtained from the breeding of heterozygous […]. Urine was collected 1 day before the treatment, considered as Day 1. The treatment started at Day 2, at around 4 weeks of age. Alport mice were treated with vehicle or 2 as described for NOD/SCID mice in the “In Vivo Studies to Assess Metastasis of Breast Cancer to the Lung” section. Urine was collected every other day for analysis of albumin or creatine levels. After 6 weeks of treatment, the mice were euthanized on Day 43. One kidney was frozen in −80° C. for Western blot and RT-qPCR analyses. The other kidney was fixed in formalin for paraffin-embedding sectioning and further staining.
# Evaluation of Kidney Function. The concentration of urine albumin was determined by using a Mouse Albumin ELISA Kit (Bethyl Laboratories Inc, E99-134) per the manufacturer's protocol. Urine creatinine level was measured by using a Urinary Creatinine Assay Kit (Fisher Scientific, 50-673-569) per the manufacturer's protocol.
# Kidney Tissue Histology. Silver staining, PAS staining, and PPARα staining were performed by Histology Core at Scripps Research Florida. The anti-PPARα (Abcam, ab215270) was used at 1:1000 dilution. FISH imaging of miR-21 and pre-miR-21 were completed as described in “Lung Tissue Histology”.
# [4] = test system: all miRNAs expressed in MDA-MB-231 cells; assay: Global miRNA profiling in MDA-MB-231 cells; format: cell-based, human
# Method: RNA Isolation and Quantitative Real-Time PCR (RT-qPCR). After treatment, total RNA was extracted and purified by using the Zymo Quick-RNA mini prep kit per the manufacturer's protocol. Reverse Transcription (RT) for mature miRNAs as well as pri- and pre-miR-21 was completed on 200 ng of RNA by using a miScript 11 RT kit (QIAGEN) according to manufacturer's protocol. RT of mRNAs was performed by using QScript kit (Quanta Bio). An Applied Biosystems QS5 384-well PCR system was used to complete qPCR experiments using Power Sybr Green Mater Mix (Life Technologies) as described previously^6.
SMILES,number of binding RNA motifs ([1]; Zobs>8),Fitness score of A bulge (5'GAC/3'C_G) in the Dicer processing site of pre-miR-21 ([1]; normalized to most significant motif = 100),IC50 [2] [µM],dose inhibiting ERK phosphorylation to the similar extent [2] [µM],"body weight of WT mice ([3]; 56 mg/kg q.o.d., 6 weeks)",PPARα expression in kidneys ([3]; WT mice),"urine albumin normalized to urine creatinine ([3]; WT mice, 56 mg/kg q.o.d.)",selectivity among all miRNAs [4],fold decrease of RTK inhibition relative to 1 [2] [fold],"shift of selectivity toward miR-21 over RTK ([2]; 25-fold (miR-21) × 100-fold (RTK), relative to 1)",inhibition of ERK phosphorylation compared to 1 ([2]; Western blot)
"CN1CCN(c2ccc3nc(-c4c(N)c5c(F)cccc5[nH]c4=O)[nH]c3c2)CC1 [Compound 1, Dovitinib, reference compound]",256,85,0.1,0.05,–,–,–,–,–,–,–
"CCOC(=O)C1=C(Nc2ccccc2)S/C(=C\c2ccc(OCCOCCOCCOCCNC(=O)NCCN3CCN(c4ccc5[nH]c(-c6c(N)c7c(F)cccc7[nH]c6=O)nc5c4)CC3)c(O)c2)C1=O [Compound 2, Ribotac-Dovitinib]",–,–,10,5,gained weight at a similar rate as vehicle-treated mice,no significant effect,no effect,more selective than 1; also recorded: greater selectivity,100,"2,500 fold",reduced ability to inhibit ERK phosphorylation compared to 1
